Laboratory results published in PMC11923902, “Structural Insights into the Substrate Recognition of Ginsenoside Glycosyltransferase Pq3‐O‐UGT2” (Advanced Science, 2025).

Target: T1, Pq3-O-UGT2 (Panax quinquefolius, UniProt A0A0M4ME80)
T1 construct: pET-28a, C-terminal TEV site and 6xHis tag, E. coli Rosetta (DE3); Ni-NTA, HiTrap Q, Mono Q, Superdex 200; monomer; domains a.a; 1-442
T1 sequence (A0A0M4ME80 1-442): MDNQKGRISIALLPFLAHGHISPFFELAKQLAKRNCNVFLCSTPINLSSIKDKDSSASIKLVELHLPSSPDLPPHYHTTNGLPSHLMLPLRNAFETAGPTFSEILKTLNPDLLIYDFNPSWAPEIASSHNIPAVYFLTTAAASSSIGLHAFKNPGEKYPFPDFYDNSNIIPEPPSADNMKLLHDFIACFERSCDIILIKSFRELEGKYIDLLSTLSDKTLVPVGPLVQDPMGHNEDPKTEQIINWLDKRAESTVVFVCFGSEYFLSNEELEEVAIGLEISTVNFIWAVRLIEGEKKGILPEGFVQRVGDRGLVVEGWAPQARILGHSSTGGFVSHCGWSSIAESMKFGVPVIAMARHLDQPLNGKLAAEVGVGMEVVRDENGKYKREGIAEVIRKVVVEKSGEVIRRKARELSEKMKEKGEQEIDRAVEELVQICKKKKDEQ
Test: X-ray crystallography, co-crystal, […] Å
Conditions: acceptor-binding pocket in N-terminal domain

Structure (SMILES): CC(C)=CCC[C@](C)(O)[C@H]1CC[C@]2(C)[C@@H]1[C@H](O)C[C@@H]1[C@@]3(C)CC[C@H](O[C@@H]4O[C@H](CO)[C@@H](O)[C@H](O)[C@H]4O)C(C)(C)[C@@H]3CC[C@]12C [Rh2, Ginsenoside Rh2]
- X-ray crystallography, co-crystal, 3.5 Å: we solved crystal structures of apo Pq3‐O‐UGT2 and its complex with Rh2
